Values quoted from earlier work in patent US20200236925A1, “METHODS AND FORMULATIONS FOR PREVENTING DOWNWARD MIGRATION OF AGRICULTURAL MATERIALS” (BAYER CROPSCIENCE LP, priority 2019, published 2020).

Tests used:
[1] = system: hybrid bermudagrass; settings: 35 or 52 g ha-1, fall or spring treatments
[2] = system: hybrid bermudagrass; settings: application rate increased from 35 to 53 g ha-1; SOC ≤0.3% w w-1

In the case of `Cc1ccc2c(c1)[C@H](Nc1nc(N)nc(C(C)F)n1)[C@@H](C)C2` (mixture of isomers) [indaziflam, N2-[(1R,2S)-2,3-dihydro-2,6-dimethyl-1H-inden-1-yl]-6-[(1RS)-1-fluoroethyl]-1,3,5-triazine-2,4-diamine], the “hybrid bermudagrass root strength vs nontreated” value [1] is given as “no differences in hybrid bermudagrass root strength”, the “increase of hybrid bermudagrass injury” value [2] is given as > 10 fold and the “solubility in distilled water” value (distilled water) is given as 2.8 µg/mL. The field-T1/2 (field persistence) was > 150 days and the “aqueous solubility (Ks)” value (pH 7) was 2.4 µg/mL.
